Patent US20100178317A1, “Lens Care Solutions with Hyaluronic Acid” (priority 2009, published 2010)

Test: Precipitate formation of polyquaternium-1 in hyaluronic acid compositions
Format: physicochemical
Conditions: polyquaternium-1 concentration beyond 3 ppm
Text: One of the more common quaternary ammonium compounds is α-[4-tris(2-hydroxyethyl)-ammonium chloride-2-butenyl]poly[1-dimethyl ammonium chloride-2-butenyl]-ω-tris(2-hydroxyethyl) ammonium chloride, also referred to in the art as polyquaternium-1. Quaternary ammonium compounds are generally referred to in the art as “polyquatemium” disinfectants, and are identified by a particular number following the designation such as polyquaternium-1, polyquaternium-10 or polyquaternium-42. Polyquaternium-1 is present in the ophthalmic compositions from 0.5 ppm to 3 ppm. […] The precipitate is believed to be the complexation product of hyaluronic acid and polyquaternium-1.

- compatibility with hyaluronic acid in the compositions: formation of a precipitate
Substance: α-[4-tris(2-hydroxyethyl)-ammonium chloride-2-butenyl]poly[1-dimethyl ammonium chloride-2-butenyl]-ω-tris(2-hydroxyethyl) ammonium chloride [polyquaternium-1]
